The text below walks through data of article PMC12525728, “Safety, Pharmacokinetics, Translational and Molecular Mechanistic Insights on the Prostate Cancer Recurrence Suppressor Pseurotin A” (Molecules, 2025).

Read-outs that look alike come from different tables or passages of the source. A value given as a limit tells only on which side of the number the result lay.

Series [1] is described as follows: Chemical stability of PsA in mice plasma (HPLC). Format: in vitro ADME. The note with it: for Stability 24 h Room Temperature, Accuracy (%) / Stability −20 °C for 2 Weeks, Accuracy (%) / Stability Freeze-Thaw Cycles, Accuracy (%): mice plasma, n = 3; for Stability Freeze-Thaw Cycles, Accuracy (%): three cycles. The protocol: Chromatographic analysis was conducted on a Shimadzu HPLC system (Shimadzu USA Manufacturing Inc., Canby, OR, USA) equipped with an SPD-20A UV detector, 20 µL manual sampler, LC-20AD pump, a degasser, and an automated temperature-controlled column compartment. The UV detector, column oven, and LC-20AD pump were coupled to the Shimadzu system and controlled through Lab Solutions software, v5.111. Stationary phase separation was carried out using a Shimadzu Shim-Pack GWS C18 column (4.6 × 250 mm, 5 µm) equipped with a Zorbax ODS guard column (4.6 × 12.5 mm, 5 µm) by gradient elution with the column temperature maintained at 35 °C. The UV detector wavelength was set and measured at 254 nm. A constant flow rate of 1.0 mL/min and manual injection of 20 µL were employed throughout the HPLC analysis. A mobile phase consisting of aqueous HCOOH (0.1%, v/v, mobile system A) and HPLC grade CH3CN (mobile system B) utilized with a gradient elution of 30–60% B at 0–5 min, 60–85% B at 5–8 min, 85–95% B at 8–11.5 min, and 95% B at 11.5–18 min. The post-run re-equilibration time was 5 min.
(§1) Five µL of the IS ([…]) and 20 µL of 50, 40, 30, 20, 10, 8, and 4 µg/mL PsA standard solutions were combined with 15 µL freshly extracted blank mouse plasma. 300 µL of a 70% EtOAc/30% isopropanol mixture was added and vortexed for 30 s. Following centrifugation at 15,000× g for 10 min, the supernatant was transferred to a 2 mL Eppendorf tube for nitrogen evaporation. The residues were reconstituted in 25 µL HPLC-grade MeOH before being subjected to 30 s sonication followed by centrifugation at 15,000× g for 10 min. Afterwards, the entire sample was immediately injected for RP-HPLC analysis. The mouse plasma samples used in the PK study were subjected to the same extraction method, minus the addition of the PsA standard solutions. After weighing, each mouse organ was reconstituted in 500 µL PBS, then homogenized using the MISONIX Sonicator (Division of QSonica LLC, Newtown, CT, USA). Samples were centrifuged at 15,000× g for 10 min, and the supernatant was collected and transferred to a 2 mL Eppendorf. About 5 µL of IS (25 µL/mL) and 300 µL of a 70% EtOAc/30% isopropanol mixture were added to 100 µL of supernatant and vortexed for 30 s. Following centrifugation at 15,000× g for 10 min, the supernatant was transferred to a 2 mL Eppendorf tube and evaporated under N2. The remains were reconstituted in 40 µL HPLC-grade methanol before being subjected to 30 s sonication followed by centrifugation at 15,000× g for 10 min.
The stability of PsA at room temperature was determined by preparing six separate mouse plasma samples for each concentration. Three samples for each concentration were immediately extracted and injected into the HPLC. The three remaining samples were left on a lab bench protected from light for 24 h before being extracted and injected into the HPLC. The concentrations measured at the 0 and 24 h time points were compared. The stability of PsA after three freeze-thaw cycles was assessed by preparing six separate mouse plasma samples for each concentration. Three samples for each concentration were immediately extracted and injected into the HPLC. The three remaining samples for each concentration were frozen and thawed in a −80 °C freezer three separate times before being extracted and injected into the HPLC. The stability of PsA at −20 °C for 2 weeks was determined by preparing six separate mouse plasma samples for each concentration. Three samples for each concentration were immediately extracted and injected into the HPLC. The three remaining samples were left in a −20 °C freezer for two weeks before being thawed, extracted, and analyzed on the HPLC.

The subject of the next series is Swiss albino mice. Also on record: method as in PMID 36771126. The note with it: cited from earlier work.
Series [2] is described as follows: Pharmacokinetics study in Swiss albino mice. The format is in vivo. The note with it: for C0 / AUC(0-t): iv, 50 mg/kg. The procedure:
as §1
The mean plasma concentration-time curve was plotted using GraphPad Prism software version 8.0.2 (La Jolla, CA, USA). PK parameters were obtained through non-compartmental analysis following intravenous bolus input using PK Solver 2.0 [52].
For the PKs study, twelve male and twelve female healthy Swiss albino mice were randomly selected and placed in 3 groups (n = 4/sex/group). The mice received free access to drinking water and pelleted regular rodent chow (5% fat content, Cat# 7012, Envigo/Teklad, Madison, WI, USA) until the day before experimentation, after which they were fasted for 8 h and allowed only free access to drinking water. Mice were administered PsA formulated in sterile PBS-DMSO (925:75) + 0.2% Tween 80 at a volume not exceeding 100 µL intravenously through recto-orbital injection. Each animal was anaesthetized using Isoflurane (Piramal Critical Care Inc., Bethlehem, PA, USA) for 1–2 min before injection. Disposable sterilized syringes (Becton, Dickinson and Company, Franklin Lakes, NJ, USA) were used for blood collection as well as administration of PsA at a dose of 50 mg/kg and volume, adjusted to the mouse body weight, no greater than 100 µL for animal safety considerations. Blood samples of around 50–70 µL were collected through the tail vein in 600 µL Eppendorf tubes at time points 0.25, 0.75, and 1.5 h for groups 1 and 4, 0.083, 0.5, and 1 h for groups 2 and 5, in addition to 2 and 4 h for groups 3 and 6 following intravenous injection and subjected to immediate centrifugation. From the plasma, 15 µL was transferred into clean 600 µL Eppendorf tubes and immediately subjected to the extraction method listed above and analyzed using HPLC.

In general, LD50 refers to the dose at which mortality reaches 50%. One may read the Vd as the apparent volume that relates the amount in the body to the concentration in plasma or blood. By MRT is commonly meant the average time that molecules of a dose stay in the body.

`CC/C=C\[C@H](O)[C@H](O)C1=C(C)C(=O)[C@]2(O1)C(=O)N[C@@](OC)(C(=O)c1ccccc1)[C@@H]2O` [PsA, pseurotin A]: the “Stability 24 h Room Temperature, Accuracy (%)” value in series [1] (4 µg/mL) is on record as 35.2%; in series [1] (50 µg/mL), 35.5%; in series [1] (250 µg/mL) it was 48.8%. Further, the figures for the “Stability −20 °C for 2 Weeks, Accuracy (%)” value in series [1] (4 µg/mL), in series [1] (50 µg/mL) and in series [1] (250 µg/mL) were 83.6%, 93.5% and 90.6%, respectively. The results for the “Stability Freeze-Thaw Cycles, Accuracy (%)” value in series [1] (4 µg/mL), in series [1] (50 µg/mL) and in series [1] (250 µg/mL) were 94.0%, 108.1% and 100.6%, respectively. For the same compound, in series [1] (mouse plasma, room temperature, 24 h), the concentration loss entry is on record as “over 50%”. Besides, in the series on Swiss albino mice (500 mg/kg female dosing group, oral gavage, after 14 days), the “decrease in body weight” value was 45%. For the same compound, the “major organ toxicity (liver, lung, heart, brain, kidneys)” value in the series on Swiss albino mice (14-day acute toxicity, 10, 250 and 500 mg/kg oral gavage) is “neither major organ toxicity”. Further, the LD50 in the series on Swiss albino mice (Up-and-Down acute toxicity procedure, oral, male and female Swiss albino mice) was above 550 mg/kg. The “plasma detectability over time by HPLC” value in series [2] (IV 50 mg/kg) is “undetectable by the HPLC method after 2 h”. Also, the C0 is 24600 to 34200 ng/mL in series [2] (both sexes, Swiss albino, mouse, plasma, IV 50 mg/kg, read-out: initial concentration range) and 37300 ng/mL in series [2] (both sexes, Swiss albino, mouse, plasma, single IV 50 mg/kg, 8 h fasting, non-compartmental, mean, read-out: C0, initial plasma concentration). For the same compound, the AUC(0-t) in series [2] (both sexes, Swiss albino, mouse, plasma, single IV 50 mg/kg, 8 h fasting, non-compartmental, mean, read-out: AUC0–t) worked out at 19100 ng·h/mL; in series [2] (both sexes, Swiss albino, mouse, plasma, single IV 50 mg/kg, 8 h fasting, non-compartmental, mean, read-out: AUCt–∞), 20900 ng·h/mL. Also, the Vd in series [2] (both sexes, Swiss albino, mouse, plasma, IV 50 mg/kg, read-out: average volume of distribution (Vd)) was determined as 1.83 L/kg; in series [2] (both sexes, Swiss albino, mouse, plasma, single IV 50 mg/kg, 8 h fasting, non-compartmental, mean, read-out: Vd, volume of distribution) it was 1.83 L. The MRT in series [2] (both sexes, Swiss albino, mouse, plasma, single IV 50 mg/kg, 8 h fasting, non-compartmental, mean, read-out: MRT, mean residence time) is 44.4 min. Further, in series [2] (both sexes, Swiss albino, mouse, plasma, single IV 50 mg/kg, 8 h fasting, non-compartmental, mean, read-out: T1/2, elimination half-life (converted)), the half-life is 31.8 min. In addition, the “AUMC, area under the moment curve” value in series [2] (single IV 50 mg/kg, 8 h fasting, non-compartmental, mean) turned out to be 15410 ng·h/mL.
